Converted amounts (≈) assume the structure as drawn. Where two headings read alike, the source gives them in different places.
How the values were obtained:
Type in all cases: physicochemical
[1] = Evaluation of crystal stability (storage at 25° C. at adjusted relative humidity); conditions: for 0% RH Weight change (%) / 52% RH Weight change (%) / 93% RH Weight change (%): 25° C., 3-day storage
Method: Approximately 50 mg of each of various samples prepared in Example 1 was placed in a weighing bottle and stored at 25° C. in a desiccator whose relative humidity was adjusted to 0%, 52%, or 93% by a saturated salt solution method (silica gel, Mg(NO3)2, KNO3). […]

[2] = Evaluation of solubility (37° C., 30 min, HPLC); conditions: thermodynamic from solid
Method: A supersaturated amount of each sample was placed in a 12-mL test tube, and 3 mL of a test solution (water, Japanese Pharmacopoeia disintegration test solution No. 1 (JP1), and Japanese Pharmacopoeia disintegration test solution No. 2 (JP2)) was added thereto. The test tube was incubated in a constant-temperature water bath at 37° C. The test tube was shaken using a vortex mixer for 30 seconds every 5 minutes. 30 minutes later, the supernatant was filtered through a membrane filter (pore size: 0.45 μm), appropriately diluted with eluent, and then analyzed by HPLC under the following conditions. The concentration was calculated from a calibration curve prepared before measurement.
Measurement conditions of HPLC (column: Waters Symmetry C18 4.6 mm×150 mm, eluent: 0.05 M phosphate buffer (pH 5.0): acetonitrile=70:30, flow rate: 1 mL/min., detection: UV 220 nm, column temperature: 40° C.)

[3] = Evaluation of chemical stability (dry heat, wet heat, light irradiation; HPLC residue); conditions: for Residue (%, mean ± SD) Light irradiation (Lx · hr) 60 × 10^4: light irradiation 60 × 10^4 Lx · hr; for Residue (%, mean ± SD) Light irradiation (Lx · hr) 120 × 10^4: light irradiation 120 × 10^4 Lx · hr; for Residue (%, mean ± SD) 50° C., 0% RH 1 week later / Residue (%, mean ± SD) 50° C., 0% RH 2 week later: dry heat 50° C.; for Residue (%, mean ± SD) 50° C., 0% RH 2 week later / Residue (%, mean ± SD) 40° C., 75% RH 2 week later: 2 weeks; for Residue (%, mean ± SD) 40° C., 75% RH 1 week later / Residue (%, mean ± SD) 40° C., 75% RH 2 week later: wet heat 40° C.
Method: Approximately 2 mg of each of various samples prepared in Example 1 was weighed into an aluminum pan for thermal analysis and stored under dry heat (50° C., 0% RH) or wet heat (40° C., 75% RH) conditions. 1 week or 2 weeks later, each sample was collected, and the weight change was measured. Then, the whole amount was dissolved in 20 mL of eluent and analyzed by HPLC. For photolysis samples, approximately 10 mg of each sample was weighed into a weighing bottle and stored at 25° C. in a light irradiator. After irradiation at 600,000 or 1,200,000 Lx/hr, the sample was collected, and the weight change was measured. Then, the whole amount was dissolved in 100 mL of eluent and analyzed by HPLC. The residue proportion was determined from the ratio between the concentration of the sample solution calculated from a calibration curve prepared before measurement and the theoretical concentration calculated from weight measurement.
Measurement conditions of HPLC (column: Waters Symmetry C18 4.6 mm×150 mm, eluent: 0.05 M phosphate buffer (pH 5.0): acetonitrile=80:20, flow rate: 1 mL/min., detection: UV 220 nm, column temperature: 40° C.)

[4] = Moisture absorption and desorption characteristics (microbalance, water vapor adsorption apparatus); conditions: 25° C., 10-90% RH
Method: Various samples prepared in Example 1 were separately placed in quartz holders and measured for their moisture absorption and desorption behavior under the following conditions using a microbalance.
Moisture absorption and desorption behavior measurement conditions (sample volume: approximately 20 mg, measurement range: 10-90% RH, measurement temperature: 25° C., variable: within 0.03%, varying length of time: 10 min., apparatus: VTI atmospheric pressure-type automatic water vapor adsorption apparatus SGA-100)

Row | Compound | 0% RH Weight change (%) [1] | 52% RH Weight change (%) [1] | 93% RH Weight change (%) [1] | solubility at 30 min ([2]; pH 1.2, simulated gastric fluid, Japanese Pharmacopoeia disintegration test solution No. 1, 37° C., read-out: JP1 (Solubility (μg/mL))) | solubility at 30 min ([2]; pH 6.8, aqueous buffer, Japanese Pharmacopoeia disintegration test solution No. 2, 37° C., read-out: JP2 (Solubility (μg/mL))) | solubility at 30 min ([2]; water, 37° C., read-out: Water (Solubility (μg/mL))) | Light irradiation Color ([3]; 25° C., after light irradiation) | Residue (%, mean ± SD) Light irradiation (Lx · hr) 60 × 10^4 ([3]; 25° C.) | Residue (%, mean ± SD) Light irradiation (Lx · hr) 120 × 10^4 ([3]; 25° C.) | Residue (%, mean ± SD) 50° C., 0% RH 1 week later [3] | Residue (%, mean ± SD) 50° C., 0% RH 2 week later [3] | Residue (%, mean ± SD) 40° C., 75% RH 1 week later [3] | Residue (%, mean ± SD) 40° C., 75% RH 2 week later [3] | stability on storage: weight and crystal form (in words) ([1]; stored for 3 days under three standard relative humidity conditions at 25° C.) | moisture absorption and desorption characteristics/behavior (in words) [4]
1 | CN1CCc2nc(C(=O)N[C@@H]3C[C@@H](C(=O)N(C)C)CC[C@@H]3NC(=O)C(=O)Nc3ccc(Cl)cn3)sc2C1 [Compound A, N^1-(5-chloropyridin-2-yl)-N^2-((1S,2R,4S)-4-[(dimethylamino)carbonyl]-2-{[(5-methyl-4,5,6,7-tetrahydrothiazolo[5,4-c]pyridin-2-yl)carbonyl]amino}cyclohexyl)ethanediamide] | −0.32% | −0.22% | −0.04% | > 2000 µg/mL | 49.8 µg/mL (≈ 90.9 µM) | 47.5 µg/mL (≈ 86.7 µM) | Changed | 92.0 ± 0.3% | 82.8 ± 0.4% | 99.3 ± 0.4% | 97.5 ± 0.7% | 99.8 ± 0.3% | 98.7 ± 1.3% | – | –
2 | CN1CCc2nc(C(=O)N[C@@H]3C[C@@H](C(=O)N(C)C)CC[C@@H]3NC(=O)C(=O)Nc3ccc(Cl)cn3)sc2C1.O.O=C(O)C(O)C(O)C(=O)O [compound II, N^1-(5-chloropyridin-2-yl)-N^2-((1S,2R,4S)-4-[(dimethylamino)carbonyl]-2-{[(5-methyl-4,5,6,7-tetrahydrothiazolo[5,4-c]pyridin-2-yl)carbonyl]amino}cyclohexyl)ethanediamide(+)-tartrate monohydrate] | −0.35% | 0.05% | 0.31% | – | – | – | – | 98.2 ± 0.9% | 95.0 ± 1.2% | 100.4 ± 0.7% | 100.1 ± 0.7% | 100.1 ± 0.7% | 100.1 ± 0.3% | stable without change both in weight and in crystal form | favorable moisture absorption and desorption characteristics
